In the supplement of paper PMC10307832:

How the values were obtained:
Assay in all cases: relative viability (nuclei count vs DMSO), 5 days (fraction); higher = more cells survive
BAM7 + Palbociclib = compound: CCOC1=CC=CC=C1N=NC2=C(NN(C2=O)C3=NC(=CS3)C4=CC=CC=C4)C [BAM7] + CC(=O)c1c(C)c2cnc(Nc3ccc(N4CCNCC4)cn3)nc2n(C2CCCC2)c1=O [Palbociclib] (partner 0.5 µM)
Outline: (§1)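 Lung cancer cell lines, seeded in 1536-well plates, were treated the following day by pin tool with a single drug or with five library-drug doses (not always all listed) in √10 steps on top of a fixed anchor-drug dose. Cells were fixed and nuclei stained in one step after 5 days, and nuclei were counted. Relative viability is the nuclei count for treated wells divided by that for vehicle wells, reported as medians of duplicate plates.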

[1] = compound: CCn1c(-c2nonc2N)nc2c(C#CC(C)(C)O)ncc(OC[C@H]3CCCNC3)c21 + CC(=O)c1c(C)c2cnc(Nc3ccc(N4CCNCC4)cn3)nc2n(C2CCCC2)c1=O [Palbociclib] (partner 0.5 µM)
Outline: as §1

BAM7 + AZD7762 = compound: CCOC1=CC=CC=C1N=NC2=C(NN(C2=O)C3=NC(=CS3)C4=CC=CC=C4)C [BAM7] + NC(=O)Nc1cc(-c2cccc(F)c2)sc1C(=O)N[C@H]1CCCNC1 [AZD7762] (partner 0.2 µM)
Outline: as §1

BAM7 + Luminespib = compound: CCOC1=CC=CC=C1N=NC2=C(NN(C2=O)C3=NC(=CS3)C4=CC=CC=C4)C [BAM7] + CCNC(=O)c1noc(-c2cc(C(C)C)c(O)cc2O)c1-c1ccc(CN2CCOCC2)cc1 [Luminespib] (partner 0.01 µM)
Outline: as §1

Row | Cell Line | relative viability (BAM7 + Palbociclib; first compound 0.5 µM) | relative viability (BAM7 + Palbociclib; first compound 5 µM) | relative viability (BAM7 + Palbociclib; first compound 15.81 µM) | relative viability (BAM7 + Palbociclib; first compound 50 µM) | relative viability ([1]; first compound 0.01 µM) | relative viability ([1]; first compound 0.03162 µM) | relative viability ([1]; first compound 0.1 µM) | relative viability ([1]; first compound 0.3162 µM) | relative viability ([1]; first compound 1 µM) | relative viability (BAM7 + AZD7762; first compound 0.5 µM) | relative viability (BAM7 + AZD7762; first compound 5 µM) | relative viability (BAM7 + AZD7762; first compound 15.81 µM) | relative viability (BAM7 + AZD7762; first compound 50 µM) | relative viability (BAM7 + Luminespib; first compound 0.5 µM) | relative viability (BAM7 + Luminespib; first compound 5 µM) | relative viability (BAM7 + Luminespib; first compound 15.81 µM) | relative viability (BAM7 + Luminespib; first compound 50 µM)
1 | HCC-44 | 0.956 | 0.974 | 0.925 | 0.981 | 0.973 | 0.939 | 0.964 | 0.813 | 1.04 | 1.03 | 0.964 | 1.05 | 0.983 | 1.38 | 1.07 | 1.03 | 0.957
2 | HCC-827 | 0.532 | 0.467 | 0.493 | 0.481 | 0.473 | 0.507 | 0.412 | 0.431 | 0.466 | 0.199 | 0.201 | 0.284 | 0.182 | 0.582 | 0.646 | 0.672 | 0.651
3 | NCI-H1623 | – | – | – | – | – | – | – | – | – | – | – | – | – | 0.491 | 0.595 | 0.526 | 0.6
4 | NCI-H2347 | 0.426 | 0.457 | 0.425 | 0.367 | 0.394 | 0.445 | 0.492 | 0.422 | 0.435 | 0.768 | 0.657 | 0.902 | 0.794 | 0.592 | 0.416 | – | 0.516
5 | PC-14 | 0.592 | 0.479 | 0.335 | 0.42 | 0.581 | 0.543 | 0.542 | 0.476 | 0.516 | 0.356 | 0.317 | 0.334 | 0.374 | 0.208 | 0.16 | 0.152 | 0.143
